Measurements published in ChEMBL document CHEMBL3046156, “Neoclerodane diterpenoids from Teucrium polium subsp. polium and their antifeedant activity” (2003).

Assays:
Spodoptera littoralis [1] = assay: Antifeedant activity against Spodoptera littoralis assessed as antifeedant index at 100 ppm by binary choice bioassay; format: functional
Spodoptera littoralis [2] = assay: Antifeedant activity against Spodoptera littoralis by binary choice bioassay; format: functional

Compound | AFI (Spodoptera littoralis [1]) [%] | FI50 (Spodoptera littoralis [2]) [ppm]
CC(=O)OC[C@@]12C(=O)[C@H]3OC(=O)[C@@](C[C@H](OC(C)=O)c4ccoc4)(C1CCC[C@]21CO1)[C@@H]3C (stereo partly specified) | 6.9 | 230
CC(=O)OC[C@@]12C(=O)[C@H]3O[C@H](OC(C)=O)[C@](C[C@H](OC(C)=O)c4ccoc4)([C@@H]3C)[C@H]1CCC[C@]21CO1 [ACETYL-AUROPOLIN] | 57.8 | 90
CC(=O)OC[C@@]12C(=O)[C@H]3O[C@H](O)[C@](C[C@H](OC(C)=O)c4ccoc4)([C@@H]3C)[C@H]1CCC[C@]21CO1 [AUROPOLIN] | 17.8 | 
CC(=O)OC[C@@]12C(=O)[C@@H](OC(C)=O)[C@@H](C)[C@]3(C[C@@H](c4ccoc4)OC3=O)[C@H]1CCC[C@]21CO1 [CAPITATIN] | 31 | 
